In paper PMC8042910, “Adiponectin-mimetic novel nonapeptide rescues aberrant neuronal metabolic-associated memory deficits in Alzheimer’s disease” (Molecular Neurodegeneration, 2021):
Residues, ends and D or L forms follow the SMILES beside them.

Columns and labels:
[1] = Stability and half-life of Os-pep in mouse plasma; assay type: in vitro ADME; conditions: 37 °C, LC-MS/MS
Method: The stability of Os-pep in mouse plasma was evaluated. An aqueous stock solution of Os-pep was added to each mouse plasma sample (n= 3) at a final concentration of 1 μg/mL. Tubes were placed in a Thermomixer (Eppendorf, Germany) and maintained at 37 °C with rotation at 300 rpm. These samples were incubated for up to 2 h. The amount of peptide remaining after the incubation was immediately determined by liquid chromatography-tandem mass spectrometry (LC-MS/MS). At different time intervals, an aliquot (100 μL) of ice-cold acetonitrile containing 0.1 μg/mL gabapentin (internal standard) was added to a 50 μL aliquot of the sample. Deproteinized samples were analyzed after vortex-mixing and centrifugation.

SH-SY5Y cells = experiment: ApoTox-Glo Triplex assay (viability, cytotoxicity, caspase 3/7), AβO-exposed cells; assay type: cell-based, human; conditions: AβO 1 μM, 12 h
Method: The ApoTox-Glo^TM Triplex assay (Promega, Madison, WI) was performed to assess the viability, cytotoxicity and caspase^3/7 activation in the human neuroblastoma SH-SY5Y and mouse hippocampal HT22 cells. SH-SY5Y and HT22 cells (2×10^4/ml) were cultured in 96-well plates (Thermo Fisher Scientific) containing DMEM supplemented with 10% FBS and 1% antibiotics and incubated at 37°C in a humidified incubator containing 5% CO2. After reaching 70% confluency, the cells were treated with AβO (1 µM) and different concentrations of Os-pep (0.5, 1, 5 and 10 µM) for 12 h. The control group (cells treated with 0.01% DMSO) was also analyzed. In addition, SH-SY5Y and HT22 cells were transfected with the AdipoR1 siRNA (h) (SC-60123) and AdipoR1 siRNA (m) (SC-60124), respectively, and treated with AβO (1 µM) and Os-pep (10 µM) for 12 h; the control group was transfected with the negative siRNA (Ambion, Thermo Fisher Scientific) and treated with 0.01% DMSO. The assay was performed according to our previously described protocols.

AdipoR1/p-AMPK signaling = AdipoR1/p-AMPK signaling in mouse brain (immunoblot); assay type: in vivo; conditions: 5 μg/g, i.p., alternating days for 45 days
Method: (§1) Os-pep was dissolved in double-deionized distilled water and then prepared in normal saline to obtain the final administered concentration. The AβO, APP/PS1, Adipo^−/− and WT mice were injected i.p. with Os-pep at a dosage of 5 μg/g on alternating days for 45 days. WT, Veh-injected transgenic-APP/PS1 and Adipo^−/− mice were injected with the same volume of double-deionized water and normal saline. The WT control and sham mice as well as the Veh-injected AβO, APP/PS1, Adipo^−/− and HFD mice received the same volume of double-deionized distilled water or normal saline.
(§2) The protein concentrations of the homogenates of mouse brain tissue and cell lysates in vitro were measured using a Bio-Rad protein assay kit (Bio-Rad Laboratories, Hercules, CA), and immunoblotting was performed as we previously described, using primary antibodies (detailed information described in the supplementary Table 1). Western blotting membranes have been cut prior to original western blot images and original western blot images are available at supplementary material.

p-IRS-1 = experiment: Neuronal insulin resistance (p-IRS-1) in mouse brain, immunoblot; assay type: in vivo; conditions: AβO-treated, APP/PS1, Adipo−/− and HFD mice, 5 μg/g, i.p., alternating days for 45 days
Method: as §1, §2
A separate cohort of animals was used to develop the HFD mouse model. Eight-week-old C57BL/6N male mice were bought from Samtako Bio (Republic of Korea). Mice were housed in the university animal housing facility under a 12 h/12 h light/dark cycle at 23°C and 60 ± 10% humidity, with food and water available ad libitum. […]

[2] = tested on: hippocampal pyramidal neuronal cells; experiment: Golgi staining, dendritic complexity and spine density of hippocampal CA1 pyramidal neurons; assay type: in vivo, mouse; conditions: Adipo−/− and AβO mice
Text: In a separate cohort of studies, we performed Golgi staining and morphological analysis of hippocampal pyramidal neuronal cells and were investigated as accordingly our previous protocol.

spatial working memory = experiment: Y-maze test; assay type: in vivo, mouse; conditions: AβO-injected, APP/PS1 and Adipo−/− mice, n = 13/group
Method: To evaluate the learning and memory functions of the mice, we performed the Morris water maze (MWM) and Y-maze tests. After completion of the Os-pep dosage regimen, behavioral studies were performed on AβO-injected, AβO-injected and scramble and functional AdipoR1 shRNA-treated, APP/PS1 and Adipo^−/− mice (n = 13/group) using the MWM and Y-maze tests. […] The mice were randomly selected, and the operators were unaware of the genotype and treatment details for the behavioral study. The MWM and Y-maze tests were performed as previously described.

[3] = Body weight measurements of the mice; assay type: in vivo, mouse; conditions: APP/PS1, HFD and Adipo−/− mice vs Veh-treated, 5 μg/g, i.p., alternating days for 45 days, n = 13/group
Method: We monitored and weighed the mice three times per week to examine the effect of Os-pep dosage regimen (5 µg/g, i.p., on alternating days for 45 days) on the animals’ body weights. At the completion of the treatment, we calculated the average change in the body weight of the mice. At the completion of the treatments and behavioral experiments, blood samples were collected by cardiac puncture of the right atrium. The serum was collected from whole blood by centrifugation (3000 rpm for 10 min) at room temperature and was stored at -20 °C until it was processed for biochemical analyses by SCL Labs (Seoul Medical Science Institute) to evaluate various metabolic parameters, e.g., glucose (Glu), free fatty acids (FFA), total cholesterol (TC), triglycerides (TG), high density lipoprotein (HDL) and low density lipoprotein (LDL) levels.

C[C@@H](O)[C@H](NC(=O)[C@@H]1CCCN1C(=O)CNC(=O)[C@H](CS)NC(=O)[C@@H]1CCCN1C(=O)CNC(=O)[C@H](CCC(N)=O)NC(=O)[C@@H](NC(=O)[C@@H](N)CS)[C@@H](C)O)C(=O)O [Os-pep] (H-CTQGPCGPT-OH; N-terminus and C-terminus assumed)
half-life (t1/2) ([1]; 1 μg/mL, incubated up to 2 h, n = 3, first-order kinetics): approximately 2 h
remaining at 2 h, 1 μg/mL ([1]; 300 rpm, after 2 h, n = 3, 0 min set to 100%, read-out: initial concentration remained): 53%
half-life at 1 μg/mL ([1]; triplicate samples, read-out: Half-life (printed in Fig. 8c) (converted)): 122 min
AβO-induced toxicity with AdipoR1 siRNA (SH-SY5Y cells; AdipoR1 siRNA-transfected SH-SY5Y, Os-pep 10 μM): did not reduce the AβO-induced toxicity
AβO neurotoxicity (viability, cytotoxicity, caspase 3/7) (SH-SY5Y cells; SH-SY5Y, Os-pep 10 μM): significantly reduced AβO (1 μM) neurotoxicity
neurotoxic effects of AβO (SH-SY5Y cells; SH-SY5Y, cotreatment 0.5, 1, 5 and 10 μM): reduced the neurotoxic effects of AβO
AdipoR1/p-AMPK signaling, AβO-injected mice (AdipoR1/p-AMPK signaling; vs AβO-injected mice without Os-pep): significantly increased AdipoR1/p-AMPK signaling
AdipoR1/p-AMPK signaling, APP/PS1 mice (AdipoR1/p-AMPK signaling; vs Veh-treated APP/PS1): remarkably increased AdipoR1/p-AMPK signaling
AdipoR1/AMPK levels, Adipo−/− mice (AdipoR1/p-AMPK signaling; vs group without Os-pep): significantly increased AdipoR1/AMPK levels
p-IRS-1 Ser636/312 levels (p-IRS-1): significantly reducing the increase
p-IRS-1 Tyr 632 levels (p-IRS-1): significantly increasing
total dendritic length ([2]; 5 μg/g, i.p., alternating days for 45 days): significantly increased the total dendritic length
total number of spines and filopodia-like spines ([2]; hippocampal CA1): significantly increased the total number of spines and the number of filopodia-like spines
percentage of spontaneous alternation behaviors (spatial working memory): significantly increased
fold-increase in body weight [3]: smaller fold-increase in the body weight
